One data set in a line: physchem. The settings on record: 37 °C, water, thermodynamic from solid.
Data set [1] in a line: Cytotoxicity against VERO cells. It is filed as cell-based. The settings on record: African green monkey, VERO cells (kidney epithelial cells).
For data set [2] the following is noted: ref previous study; cited from earlier work.
For data set [3], the system named is Mycobacterium tuberculosis H37Ra. Description: microbe, parasite or virus in culture. Type of data set: cell-based.
A short description of data set [4]: in vitro. The settings on record: mouse, microsomes, pH 7.5.
The nature of data set [5]: in vitro. The settings on record: rat, microsomes, pH 7.5.
A short description of data set [6]: in vitro. The settings on record: human, microsomes, pH 7.5.
Data set [7] in a line: in vitro. The settings on record: dog; for Papp B→A / efflux ratio: MDCK-MDR1, pH 7.4; for Papp A→B: MDCK-MDR1, pH 7.4, Mean Papp A to B, A to B.
In a further data set the target is CYP2C19 (Homo sapiens, UniProt P33261). Description: biochemical. The settings on record: CYP inhibitory IC50, 2C19.
Another data set addresses CYP3A4 (Homo sapiens, UniProt P08684). Nature of the data set: biochemical.
A short description of data set [8]: Pharmacokinetic study in ICR mice. Type of data set: in vivo. The settings on record: mouse.

The values below come from PMC9078972 (RSC Advances, 2018).

Values after ≈ are worked out from the molar mass of the structure shown.

CYP3A4, sequence (P08684 whole entry): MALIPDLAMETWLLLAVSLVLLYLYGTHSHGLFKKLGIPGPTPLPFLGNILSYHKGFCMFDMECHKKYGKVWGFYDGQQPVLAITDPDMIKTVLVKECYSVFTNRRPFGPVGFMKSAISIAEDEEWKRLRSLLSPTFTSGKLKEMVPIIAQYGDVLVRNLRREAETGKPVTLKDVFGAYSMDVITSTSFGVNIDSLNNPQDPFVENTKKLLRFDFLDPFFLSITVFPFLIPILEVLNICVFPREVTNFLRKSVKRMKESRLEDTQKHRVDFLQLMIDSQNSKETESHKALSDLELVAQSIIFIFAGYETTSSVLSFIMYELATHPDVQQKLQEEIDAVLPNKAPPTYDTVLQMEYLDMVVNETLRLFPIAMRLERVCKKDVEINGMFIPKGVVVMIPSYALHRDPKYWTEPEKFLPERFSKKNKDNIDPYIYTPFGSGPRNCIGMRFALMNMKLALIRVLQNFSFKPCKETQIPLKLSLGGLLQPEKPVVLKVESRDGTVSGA
CYP2C19, sequence (P33261 whole entry): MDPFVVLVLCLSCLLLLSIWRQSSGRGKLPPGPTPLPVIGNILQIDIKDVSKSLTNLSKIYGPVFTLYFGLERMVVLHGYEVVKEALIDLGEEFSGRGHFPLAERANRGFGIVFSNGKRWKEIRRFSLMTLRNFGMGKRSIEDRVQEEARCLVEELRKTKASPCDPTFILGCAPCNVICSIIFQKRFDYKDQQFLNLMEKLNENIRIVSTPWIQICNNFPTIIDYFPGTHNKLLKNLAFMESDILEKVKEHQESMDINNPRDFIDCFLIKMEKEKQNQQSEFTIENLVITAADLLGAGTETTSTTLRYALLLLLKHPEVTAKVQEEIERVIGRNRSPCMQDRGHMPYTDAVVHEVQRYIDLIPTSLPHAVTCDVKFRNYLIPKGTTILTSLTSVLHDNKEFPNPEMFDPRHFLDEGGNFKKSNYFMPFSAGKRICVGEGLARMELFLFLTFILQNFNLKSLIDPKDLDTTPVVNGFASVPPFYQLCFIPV

In the case of `C[C@H]1COC2(CCN(c3nc(=O)c4cc(C(F)(F)F)cc([N+](=O)[O-])c4s3)CC2)O1` [BTZ043], in the data set “physchem”, the solubility (commonly the dissolved amount per volume that the medium holds) was less than 1 µg/mL. In [1], the CC50 (commonly the concentration at which the toxic effect on the cells reaches its halfway point) was more than 10 µM. The “bioavailability F” value in data set [2] was 29.5%. In data set [3], the MIC was found to be 0.004 µM (≈ 1.73 ng/mL). The half-life (as a rule, how long it takes for the measured level to halve) in the data set “in vitro [4]” amounted to 16.7 min. The molecule also registered a half-life in the data set “in vitro [5]” of 22 min. Also, in “in vitro [6]”, the half-life is 46.1 min. Besides, in the data set “in vitro [7]”, the apparent permeability from basolateral to apical (Papp B→A) (commonly how fast a substance crosses the layer from the basolateral side) is 7.17 ×10⁻⁶ cm/s; the efflux ratio (as a rule, the permeability from basolateral to apical divided by that in the opposite direction, in the common usage) is 0.79; the apparent permeability from apical to basolateral (Papp A→B) (as a rule, the apparent permeability from the apical to the basolateral side of a cell layer) is 9.02 ×10⁻⁶ cm/s.
Regarding `O=C1CN(c2nc(=O)c3cc(C(F)(F)F)cc([N+](=O)[O-])c3s2)CCN1C1CCCC1` [Compound 1a, 2-(4-Cyclopentyl-3-oxopiperazin-1-yl)-8-nitro-6(trifluoromethyl)-4H-benzo[e]-[1,3]thiazin-4-one], the solubility in the data set “physchem” came out at 7.37 µg/mL (≈ 16.7 µM). In data set [1], this molecule came in with a CC50 of more than 10 µM. For the same molecule, the IC50 (commonly the midpoint of a concentration-inhibition curve) against CYP2C19 is 8.6 µM; against CYP3A4 it was 5.33 µM. The molecule further displayed an MIC in data set [3] of 0.013 µM (≈ 5.75 ng/mL). For the same molecule, the half-life in the data set “in vitro [4]” is 9.4 min; in the data set “in vitro [5]” it was 15.6 min; in the data set “in vitro [6]”, 72 min. The same molecule displayed a Papp B→A in “in vitro [7]” of 7.23 ×10⁻⁶ cm/s. Besides, the efflux ratio in “in vitro [7]” stood at 0.68. Moreover, the Papp A→B in “in vitro [7]” was determined as 10.6 ×10⁻⁶ cm/s.
Molecule `O=C1CN(c2nc(=O)c3cc(C(F)(F)F)cc([N+](=O)[O-])c3s2)CCN1C1CCCCC1` [Compound 1b, 2-(4-Cyclohexyl-3-oxopiperazin-1-yl)-8-nitro-6-(trifluoromethyl)-4H-benzo[e]-[1,3]thiazin-4-one] yielded a solubility in the data set “physchem” of 1.63 µg/mL (≈ 3.57 µM). The molecule also yielded a 50% cytotoxic concentration (CC50) in [1] of more than 10 µM. This molecule also gave an MIC in data set [3] of 0.017 µM (≈ 7.76 ng/mL).
The matching figures for `O=C1CN(c2nc(=O)c3cc(C(F)(F)F)cc([N+](=O)[O-])c3s2)CCN1CC1CCCCC1` [Compound 1c, 2-(4-(Cyclohexylmethyl)-3-oxopiperazin-1-yl)-8-nitro-6-(trifluoromethyl)-4H-benzo-[e][1,3]thiazin-4-one]: 3.57 µg/mL (≈ 7.59 µM), more than 10 µM and 0.017 µM (≈ 8 ng/mL).
In turn, `O=C(OC1CCN(c2nc(=O)c3cc(C(F)(F)F)cc([N+](=O)[O-])c3s2)CC1)c1ccc(C(F)(F)F)cc1` [Compound 2k, 1-(8-Nitro-4-oxo-6-(trifluoromethyl)-4H-benzo[e][1,3]thiazin-2-yl)piperidin-4-yl 4-(trifluoromethyl)benzoate] registered a CC50 in data set [1] of more than 10 µM. The same molecule displayed an MIC in [3] of 0.008 µM (≈ 4.38 ng/mL).
The corresponding values for `COc1ccc(C(=O)OC2CCN(c3nc(=O)c4cc(C(F)(F)F)cc([N+](=O)[O-])c4s3)CC2)cc1` [Compound 2l, 1-(8-Nitro-4-oxo-6-(trifluoromethyl)-4H-benzo[e][1,3]thiazin-2-yl)piperidin-4-yl 4-methoxybenzoat] are more than 10 µM and 0.008 µM (≈ 4.08 ng/mL).
The corresponding values for `COc1ccccc1C(=O)OC1CCN(c2nc(=O)c3cc(C(F)(F)F)cc([N+](=O)[O-])c3s2)CC1` [Compound 2m, 1-(8-Nitro-4-oxo-6-(trifluoromethyl)-4H-benzo[e][1,3]thiazin-2-yl)piperidin-4-yl 2-methoxybenzoate] are more than 10 µM and 0.063 µM (≈ 32.1 ng/mL).
The matching figures for `COC(=O)c1ccc(C(=O)OC2CCN(c3nc(=O)c4cc(C(F)(F)F)cc([N+](=O)[O-])c4s3)CC2)cc1` [Compound 2n, Methyl (1-(8-nitro-4-oxo-6-(trifluoromethyl)-4H-benzo[e][1,3]thiazin-2-yl)-piperidin-4-yl) terephthalate]: more than 10 µM and 0.063 µM (≈ 33.9 ng/mL).
For the molecule `CN(C)c1ccc(C(=O)OC2CCN(c3nc(=O)c4cc(C(F)(F)F)cc([N+](=O)[O-])c4s3)CC2)cc1` [Compound 2o, 1-(8-Nitro-4-oxo-6-(trifluoromethyl)-4H-benzo[e][1,3]thiazin-2-yl)piperidin-4-yl 4-(dimethylamino)benzoate], in data set [1], the CC50 is more than 10 µM. In [3], this molecule showed an MIC of 0.031 µM (≈ 16.2 ng/mL).
In data set [1], `Cc1ccccc1OC1CCN(c2nc(=O)c3cc(C(F)(F)F)cc([N+](=O)[O-])c3s2)CC1` [Compound 3g, 8-Nitro-2-(4-(o-tolyloxy)piperidin-1-yl)-6-(trifluoromethyl)-4H-benzo[e][1,3]thiazin-4-one] came in with a 50% cytotoxic concentration (CC50) of more than 10 µM. In addition, the MIC in [3] turned out to be 0.016 µM (≈ 7.45 ng/mL).
The corresponding values for `O=c1nc(N2CCC(Oc3ccc(OC(F)(F)F)cc3)CC2)sc2c([N+](=O)[O-])cc(C(F)(F)F)cc12` [Compound 3h, 8-Nitro-2-(4-(4-(trifluoromethoxy)phenoxy)piperidin-1-yl)-6-(trifluoromethyl)-4H-benzo[e][1,3]thiazin-4-one] are more than 10 µM and 0.008 µM (≈ 4.28 ng/mL).
In the data set “physchem”, `Cc1ccc(OC2CCN(c3nc(=O)c4cc(C(F)(F)F)cc([N+](=O)[O-])c4s3)CC2)c(F)c1` [Compound 3i, 2-(4-(2-Fluoro-4-methylphenoxy)piperidin-1-yl)-8-nitro-6-(tri-fluoromethyl)-4H-benzo[e][1,3]thiazin-4-one] yielded a solubility of 1 µg/mL (≈ 2.07 µM). Also, the half-maximal cytotoxic concentration (CC50) in data set [1] was more than 10 µM. For the same molecule, the MIC in data set [3] is 0.016 µM (≈ 7.74 ng/mL).
For `O=c1nc(N2CCC(Oc3ccccn3)CC2)sc2c([N+](=O)[O-])cc(C(F)(F)F)cc12` [Compound 3k, 8-Nitro-2-(4-(pyridin-2-yloxy)piperidin-1-yl)-6-(trifluoro-methyl)-4H-benzo[e][1,3]thiazin-4-one], in [1], the CC50 was more than 10 µM. The molecule also had an MIC in [3] of 0.031 µM (≈ 14 ng/mL).
The corresponding values for `O=c1nc(N2CCC(Oc3ccc(F)cn3)CC2)sc2c([N+](=O)[O-])cc(C(F)(F)F)cc12` [Compound 3l, 2-(4-((5-Fluoropyridin-2-yl)oxy)piperidin-1-yl)-8-nitro-6-(tri-fluoromethyl)-4H-benzo[e][1,3]thiazin-4-one] are more than 10 µM and 0.031 µM (≈ 14.6 ng/mL).
`Cc1ccnc(OC2CCN(c3nc(=O)c4cc(C(F)(F)F)cc([N+](=O)[O-])c4s3)CC2)n1` [Compound 3m, 2-(4-((4-Methylpyrimidin-2-yl)oxy)piperidin-1-yl)-8-nitro-6-(trifluoromethyl)-4H-benzo[e][1,3]thiazin-4-one] displayed a solubility in the data set “physchem” of 2.39 µg/mL (≈ 5.11 µM). In addition, the CC50 in data set [1] was more than 10 µM. For the same molecule, the MIC in data set [3] was 0.031 µM (≈ 14.5 ng/mL).
`O=c1nc(N2CCN(CC3CCCCC3)CC2)sc2c([N+](=O)[O-])cc(C(F)(F)F)cc12` [PBTZ169] gave a half-life in the data set “in vitro [4]” of 14.4 min. Further, the half-life in the data set “in vitro [5]” stood at 14.7 min. Besides, the half-life in “in vitro [6]” is 11.1 min. Besides, in “in vitro [7]”, the basolateral-to-apical permeability (Papp B→A) was determined as 0.74 ×10⁻⁶ cm/s and the Papp A→B turned out to be 0.74 ×10⁻⁶ cm/s. In addition, in data set [8] (lung, iv, 10 mg/kg), the concentration peaked (Cmax) at 4210 ng/mL; the MRT inf (commonly a mean duration of stay, worked out from the concentration-time curve) was found to be 270 min; the time of peak concentration (Tmax) – broadly, the time from dosing to the highest level – stood at 4.8 min; the half-life was 190 min. In addition, in data set [8] (lung, po, 100 mg/kg), the AUC(0-inf) – broadly, total exposure, with the tail of the curve extrapolated – amounted to 7840 ng·h/mL; the Cmax (in general, the maximum level reached in the sampled fluid or tissue) is 811 ng/mL; the MRT inf worked out at 390 min; the Tmax is 30 min. Further, the half-life in [8] (lung, po, 100 mg/kg) is 254 min. For the same molecule, in [8] (plasma, iv, 10 mg/kg), the area under the curve AUC(0-inf) was determined as 9070 ng·h/mL; the MRT inf is 63 min; the time to peak (Tmax) turned out to be 4.8 min; the Vd – broadly, a proportionality between amount in the body and measured concentration, not a real space – was 1.15 L/kg. Moreover, in data set [8] (plasma, iv, 10 mg/kg), the clearance (as a rule, the rate of elimination divided by the concentration) was 18.3 mL/min/kg and the half-life was 160 min. Also, in data set [8] (plasma, po, 100 mg/kg), the maximum concentration (Cmax) came out at 3000 ng/mL; the MRT inf was 222 min; the time to peak (Tmax) was 120 min; the bioavailability (commonly dose-corrected exposure relative to a reference, in per cent) was determined as 20.8%. The same molecule had a half-life in data set [8] (plasma, po, 100 mg/kg) of 125 min.
